Test results as given in PubChem BioAssay AID248 (DTP/NCI, 2004).
Where “and” joins values, the source holds several entries; their conditions need not be identical. Equal values may be shown once. Inconclusive results and toxic doses are left out. Cut-off read from the data, not from the text of the source: active = T/C of 150% or more; inactive = T/C below 125%.

System: L1210 leukemia ip in BDF1 mice, survival T/C
Test: NCI In Vivo Anticancer Drug Screen. Data for tumor model L1210 Leukemia (intraperitoneal) in B6D2F1 (BDF1) mice
Details: endpoint: mean survival time, higher = longer survival
Procedure, shortened: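 Antitumor effect is assessed in tumor-bearing animals. Survival in the compound arm is compared with a vehicle-dosed control arm and expressed as their quotient.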

[1] = dose: 100.0 mg/kg/injection, schedule: Q01DX001 (ip), vehicle: saline
[2] = dose: 200.0 mg/kg/injection, schedule: Q01DX001 (ip), vehicle: saline
[3] = dose: 100.0 mg/kg/injection, schedule: Q01DX009 (ip), vehicle: Klucel (hydroxypropylcellulose) (HPC)
[4] = dose: 100.0 mg/kg/injection, schedule: Q04DX003 (ip), vehicle: Klucel (hydroxypropylcellulose) (HPC)
[5] = dose: 200.0 mg/kg/injection, schedule: Q01DX009 (ip), vehicle: Klucel (hydroxypropylcellulose) (HPC)
[6] = dose: 200.0 mg/kg/injection, schedule: Q04DX003 (ip), vehicle: Klucel (hydroxypropylcellulose) (HPC)
[7] = dose: 400.0 mg/kg/injection, schedule: Q01DX009 (ip), vehicle: Klucel (hydroxypropylcellulose) (HPC)
[8] = dose: 400.0 mg/kg/injection, schedule: Q04DX003 (ip), vehicle: Klucel (hydroxypropylcellulose) (HPC)

Measured: T/C

C1C2C1C1C3C2C2C4C5CC5C5C2C1C1C5C4C31 (centres undefined)
inactive: dose: 50.0 mg/kg/injection, schedule: Q01DX001 (ip), vehicle: saline 106 % of control | [1] 112 % of control | [2] 122 % of control | dose: 400.0 mg/kg/injection, schedule: Q01DX001 (ip), vehicle: saline 106 % of control

CC(=O)Nc1c(Cl)c(Cl)c2c(c1Cl)C(O)c1cc(Cl)ccc1-2 (centres undefined)
inactive: dose: 100.0 mg/kg/injection, schedule: Q01DX001 (ip), vehicle: carboxymethylcellulose (CMC) 103 % of control | dose: 200.0 mg/kg/injection, schedule: Q01DX001 (ip), vehicle: carboxymethylcellulose (CMC) 97 % of control | dose: 400.0 mg/kg/injection, schedule: Q01DX001 (ip), vehicle: carboxymethylcellulose (CMC) 114 % of control

CN1CCN(Cc2c(O)ccc3c2OC(C)(C)C2=C3CCCC2)CC1
inactive: [1] 89 % of control | [2] 98 % of control

O=[N+]([O-])c1cnc2ccnn2c1
inactive: [3] 101 % of control | [4] 100 % of control | [5] 97 % of control | [6] 92 % of control | [7] 111 % of control | [8] 100 % of control

Cc1ccc(NCc2ccccc2O)c(C)c1
inactive: dose: 100.0 mg/kg/injection, schedule: Q04DX003 (ip), vehicle: gum acacia 94 % of control | dose: 200.0 mg/kg/injection, schedule: Q04DX003 (ip), vehicle: gum acacia 101 % of control | dose: 400.0 mg/kg/injection, schedule: Q04DX003 (ip), vehicle: gum acacia 99 % of control

O=C(N=Nc1c(O)[nH]c2ccc(Br)cc12)c1ccco1
inactive: dose: 100.0 mg/kg/injection, schedule: Q04DX002 (ip), vehicle: Klucel (hydroxypropylcellulose) (HPC) 111 % of control | dose: 200.0 mg/kg/injection, schedule: Q04DX002 (ip), vehicle: Klucel (hydroxypropylcellulose) (HPC) 95 % of control | dose: 400.0 mg/kg/injection, schedule: Q04DX002 (ip), vehicle: Klucel (hydroxypropylcellulose) (HPC) 95 % of control

[Se]=P(N1CCCCC1)(N1CCCCC1)N1CCCCC1
inactive: dose: 25.0 mg/kg/injection, schedule: Q01DX009 (ip), vehicle: Klucel (hydroxypropylcellulose) (HPC) 98 % of control | dose: 50.0 mg/kg/injection, schedule: Q01DX009 (ip), vehicle: Klucel (hydroxypropylcellulose) (HPC) 104 % of control | [3] 87 % of control

CCCCN(c1ccccc1)c1ncnc2c1cnn2C
inactive: dose: 50.0 mg/kg/injection, schedule: Q01DX009 (ip), vehicle: saline with Tween-80 100 % of control | dose: 100.0 mg/kg/injection, schedule: Q01DX009 (ip), vehicle: saline with Tween-80 102 % of control and 104 % of control | dose: 100.0 mg/kg/injection, schedule: Q04DX003 (ip), vehicle: saline with Tween-80 97 % of control | dose: 200.0 mg/kg/injection, schedule: Q01DX009 (ip), vehicle: saline with Tween-80 98 % of control and 105 % of control | dose: 200.0 mg/kg/injection, schedule: Q04DX003 (ip), vehicle: saline with Tween-80 96 % of control | dose: 400.0 mg/kg/injection, schedule: Q04DX003 (ip), vehicle: saline with Tween-80 94 % of control

CN1OC(C#N)(C#N)C(C#N)(C#N)C1c1ccccc1 (centres undefined)
inactive: dose: 100.0 mg/kg/injection, schedule: Q01DX009 (ip), vehicle: saline 103 % of control | dose: 100.0 mg/kg/injection, schedule: Q04DX003 (ip), vehicle: saline 101 % of control | dose: 200.0 mg/kg/injection, schedule: Q01DX009 (ip), vehicle: saline 106 % of control | dose: 200.0 mg/kg/injection, schedule: Q04DX003 (ip), vehicle: saline 89 % of control | dose: 400.0 mg/kg/injection, schedule: Q01DX009 (ip), vehicle: saline 101 % of control | dose: 400.0 mg/kg/injection, schedule: Q04DX003 (ip), vehicle: saline 109 % of control

ClC(c1ccccc1)C1(Cl)C=c2ccccc2=C1 (centres undefined)
inactive: [3] 98 % of control | [4] 102 % of control | [5] 98 % of control | [6] 92 % of control | [7] 95 % of control | [8] 96 % of control

CC(C)NS(=O)(=O)c1ccc(Cl)cc1
inactive: [4] 100 % of control | [6] 102 % of control
